Data reported in the NIST ThermoML archive (doi:10.1016/j.jct.2014.02.024).

Assay: mn = molality of the nth substance listed, in mol/kg
Details: 101.3 kPa, Liquid; for viscosity: Capillary tube (Ostwald / Ubbelohde) method; for mass density: Pycnometric method

NC(=O)c1cccnc1 [3-pyridinecarboxamide] + O
Details | mass density [kg/m3] | viscosity [mPa·s]
275.15 K, m1 = 0.0101 | 1000.22 | 1.683
275.15 K, m1 = 0.0201 | 1000.53 | 1.687
275.15 K, m1 = 0.03 | 1000.83 | 1.691
275.15 K, m1 = 0.035 | 1001.02 | 1.697
275.15 K, m1 = 0.0401 | 1001.11 | 1.703
275.15 K, m1 = 0.0452 | 1001.26 | 1.707
275.15 K, m1 = 0.0502 | 1001.51 | 1.71
275.15 K, m1 = 0.0598 | 1001.74 | 1.711
275.15 K, m1 = 0.0651 | 1001.85 | 1.714
275.15 K, m1 = 0.07 | 1002.13 | 1.718
275.15 K, m1 = 0.0749 | 1002.21 | 1.724
275.15 K, m1 = 0.08 | 1002.41 | 1.721
275.15 K, m1 = 0.0852 | 1002.57 | 1.724
275.15 K, m1 = 0.1004 | 1002.93 | 1.73
277.15 K, m1 = 0.01 | 1000.25 | 1.578
277.15 K, m1 = 0.0202 | 1000.54 | 1.583
277.15 K, m1 = 0.03 | 1000.97 | 1.588
277.15 K, m1 = 0.0348 | 1000.98 | 1.59
277.15 K, m1 = 0.045 | 1001.27 | 1.595
277.15 K, m1 = 0.05 | 1001.42 | 1.598
277.15 K, m1 = 0.0601 | 1001.66 | 1.603
277.15 K, m1 = 0.0652 | 1001.86 | 1.605
277.15 K, m1 = 0.0691 | 1002 | 1.607
277.15 K, m1 = 0.075 | 1002.19 | 1.61
277.15 K, m1 = 0.0801 | 1002.29 | 1.612
277.15 K, m1 = 0.0849 | 1002.44 | 1.615
279.15 K, m1 = 0.02 | 1000.51 | 1.481
279.15 K, m1 = 0.0302 | 1000.82 | 1.482
279.15 K, m1 = 0.0347 | 1000.97 | 1.485
279.15 K, m1 = 0.0348 | 1000.92 | 1.485
279.15 K, m1 = 0.04 | 1001.13 | 1.487
279.15 K, m1 = 0.0451 | 1001.28 | 1.488
279.15 K, m1 = 0.05 | 1001.45 | 1.493
279.15 K, m1 = 0.0598 | 1001.7 | 1.495
279.15 K, m1 = 0.0699 | 1001.95 | 1.5
279.15 K, m1 = 0.0749 | 1002.04 | 1.504
279.15 K, m1 = 0.0799 | 1002.19 | 1.507
279.15 K, m1 = 0.0849 | 1002.36 | 1.51
279.15 K, m1 = 0.0897 | 1002.44 | 1.513
279.15 K, m1 = 0.1004 | 1002.78 | 1.52

O=C(O)c1cccnc1 [3-carboxylpyridine] + O
Details | mass density [kg/m3] | viscosity [mPa·s]
275.15 K, m1 = 0.0098 | 1000.41 | 1.675
275.15 K, m1 = 0.0199 | 1000.84 | 1.685
275.15 K, m1 = 0.023 | 1000.96 | 1.687
275.15 K, m1 = 0.0249 | 1001.1 | 1.687
275.15 K, m1 = 0.0299 | 1001.29 | 1.691
275.15 K, m1 = 0.0349 | 1001.51 | 1.686
275.15 K, m1 = 0.0402 | 1001.76 | 1.691
275.15 K, m1 = 0.0429 | 1001.91 | 1.693
275.15 K, m1 = 0.0453 | 1002.02 | 1.694
275.15 K, m1 = 0.0497 | 1002.2 | 1.69
275.15 K, m1 = 0.055 | 1002.46 | 1.7
275.15 K, m1 = 0.06 | 1002.7 | 1.702
275.15 K, m1 = 0.0646 | 1002.87 | 1.704
275.15 K, m1 = 0.0701 | 1003.17 | 1.706
275.15 K, m1 = 0.0801 | 1003.54 | 1.715
277.15 K, m1 = 0.0094 | 1000.39 | 1.572
277.15 K, m1 = 0.0201 | 1000.87 | 1.574
277.15 K, m1 = 0.0231 | 1000.98 | 1.574
277.15 K, m1 = 0.025 | 1001.1 | 1.576
277.15 K, m1 = 0.0296 | 1001.29 | 1.577
277.15 K, m1 = 0.0399 | 1001.69 | 1.58
277.15 K, m1 = 0.043 | 1001.86 | 1.582
277.15 K, m1 = 0.0451 | 1001.97 | 1.583
277.15 K, m1 = 0.0499 | 1002.23 | 1.586
277.15 K, m1 = 0.055 | 1002.34 | 1.586
277.15 K, m1 = 0.06 | 1002.64 | 1.587
277.15 K, m1 = 0.0631 | 1002.69 | 1.591
277.15 K, m1 = 0.065 | 1002.84 | 1.591
277.15 K, m1 = 0.0705 | 1003.13 | 1.592
279.15 K, m1 = 0.0103 | 1000.39 | 1.474
279.15 K, m1 = 0.0198 | 1000.79 | 1.479
279.15 K, m1 = 0.0229 | 1000.95 | 1.485
279.15 K, m1 = 0.03 | 1001.23 | 1.489
279.15 K, m1 = 0.0351 | 1001.46 | 1.49
279.15 K, m1 = 0.04 | 1001.74 | 1.495
279.15 K, m1 = 0.0431 | 1001.79 | 1.494
279.15 K, m1 = 0.0454 | 1001.94 | 1.496
279.15 K, m1 = 0.0501 | 1002.16 | 1.499
279.15 K, m1 = 0.0551 | 1002.39 | 1.503
279.15 K, m1 = 0.06 | 1002.54 | 1.5
279.15 K, m1 = 0.0631 | 1002.68 | 1.502
279.15 K, m1 = 0.065 | 1002.79 | 1.503
279.15 K, m1 = 0.0701 | 1003.04 | 1.509
